Reference: patent US9149038B2, “4-amino-6-(heterocyclic)picolinates and 6-amino-2-(heterocyclic)pyrimidine-4-carboxylates and their use as herbicides” (Dow AgroSciences LLC, priority 2013, dated 2015)
Read-outs that look alike come from different tables or passages of the source.

Key:
[1] = test system: Key Grass and Sedge Weeds as well as Grass Crops; assay: Post-Emergent Test II: postemergent herbicidal activity, visual rating after 14 d (Table 8); assay type: in vivo; conditions: post-emergence, 336 h; for pest or weed control at 35 g/ha: 35 g ai/ha; for pest or weed control at 70 g/ha: 70 g ai/ha; for pest or weed control at 140 g/ha: 140 g ai/ha
How it was run: (§1)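 Greenhouse-grown plants at the first or second true leaf stage (7-21 d, ~15 h photoperiod, 23-29° C day) were sprayed with compound in acetone/DMSO-based aqueous spray containing crop oil concentrate and Triton X-155 at 187 L/ha. Injury versus untreated plants was rated visually after 14 d on a 0-100 scale.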

[2] = test system: Key Broadleaf Weed and Crop Species; assay: Post-Emergent Test II: postemergent herbicidal activity, visual rating after 14 d (Table 7); assay type: in vivo; conditions: post-emergence, 336 h; for pest or weed control at 35 g/ha: 35 g ai/ha; for pest or weed control at 70 g/ha: 70 g ai/ha; for pest or weed control at 140 g/ha: 140 g ai/ha
How it was run: as §1

[3] = barnyardgrass (Echinochloa crus-galli), read-out: Visual Growth Reduction (%) 14 Days After Application ECHCG
[4] = giant foxtail (Setaria faberi), read-out: Visual Growth Reduction (%) 14 Days After Application SETFA
[5] = maize, corn (Zea mays), read-out: Visual Growth Reduction (%) 14 Days After Application ZEAMX
[6] = rice (Oryza sativa), read-out: Visual Growth Reduction (%) 14 Days After Application ORYSA
[7] = wheat, spring (Triticum aestivum), read-out: Visual Growth Reduction (%) 14 Days After Application TRZAS
[8] = yellow nutsedge (Cyperus esculentus), read-out: Visual Growth Reduction (%) 14 Days After Application CYPES
[9] = lambsquarters (Chenopodium album), read-out: Visual Growth Reduction (%) 14 Days After Application CHEAL
[10] = oilseed rape, canola (Brassica napus), read-out: Visual Growth Reduction (%) 14 Days After Application BRSNN
[11] = redroot pigweed (Amaranthus retroflexus), read-out: Visual Growth Reduction (%) 14 Days After Application AMARE
[12] = sunflower (Helianthus annuus), read-out: Visual Growth Reduction (%) 14 Days After Application HELAN
[13] = velvetleaf (Abutilon theophrasti), read-out: Visual Growth Reduction (%) 14 Days After Application ABUTH
[14] = wild poinsettia (Euphorbia heterophylla), read-out: Visual Growth Reduction (%) 14 Days After Application EPHHL

COC(=O)c1nc(-c2ccc3c(c2)OC(C)O3)c(F)c(N)c1Cl (stereo not drawn) [Compound 20]
pest or weed control at 35 g/ha [1, 3]: 60 to 74% | pest or weed control at 70 g/ha [1, 3]: 75 to 84% | pest or weed control at 140 g/ha [1, 3]: 85 to 94% | pest or weed control at 35 g/ha [1, 4]: 45 to 59% | pest or weed control at 70 g/ha [1, 4]: 75 to 84% | pest or weed control at 140 g/ha [1, 4]: 85 to 94% | pest or weed control at 35 g/ha [1, 5]: 30 to 44% | pest or weed control at 70 g/ha [1, 5]: 45 to 59% | pest or weed control at 140 g/ha [1, 5]: 60 to 74% | pest or weed control at 35 g/ha [1, 6]: 0 to 29% | pest or weed control at 70 g/ha [1, 6]: 30 to 44% | pest or weed control at 140 g/ha [1, 6]: 30 to 44% | pest or weed control at 35 g/ha [1, 7]: 0 to 29% | pest or weed control at 70 g/ha [1, 7]: 0 to 29% | pest or weed control at 140 g/ha [1, 7]: 0 to 29% | pest or weed control at 35 g/ha [1, 8]: 45 to 59% | pest or weed control at 70 g/ha [1, 8]: 75 to 84% | pest or weed control at 140 g/ha [1, 8]: 85 to 94% | pest or weed control at 35 g/ha [2, 9]: 0 to 29% | pest or weed control at 70 g/ha [2, 9]: 30 to 44% | pest or weed control at 140 g/ha [2, 9]: 75 to 84% | pest or weed control at 35 g/ha [2, 10]: 0 to 29% | pest or weed control at 70 g/ha [2, 10]: 0 to 29% | pest or weed control at 140 g/ha [2, 10]: 30 to 44% | pest or weed control at 35 g/ha [2, 11]: 60 to 74% | pest or weed control at 70 g/ha [2, 11]: 95 to 100% | pest or weed control at 140 g/ha [2, 11]: 95 to 100% | pest or weed control at 35 g/ha [2, 12]: 60 to 74% | pest or weed control at 70 g/ha [2, 12]: 75 to 84% | pest or weed control at 140 g/ha [2, 12]: 85 to 94% | pest or weed control at 35 g/ha [2, 13]: 30 to 44% | pest or weed control at 70 g/ha [2, 13]: 60 to 74% | pest or weed control at 140 g/ha [2, 13]: 95 to 100% | pest or weed control at 35 g/ha [2, 14]: 45 to 59% | pest or weed control at 70 g/ha [2, 14]: 85 to 94% | pest or weed control at 140 g/ha [2, 14]: 85 to 94%

CC1(C)Oc2ccc(-c3nc(C(=O)O)c(Cl)c(N)c3F)cc2O1 [Compound 19]
pest or weed control at 35 g/ha [1, 3]: 85 to 94% | pest or weed control at 70 g/ha [1, 3]: 85 to 94% | pest or weed control at 140 g/ha [1, 3]: 95 to 100% | pest or weed control at 35 g/ha [1, 4]: 0 to 29% | pest or weed control at 70 g/ha [1, 4]: 0 to 29% | pest or weed control at 140 g/ha [1, 4]: 0 to 29% | pest or weed control at 35 g/ha [1, 5]: 60 to 74% | pest or weed control at 70 g/ha [1, 5]: 60 to 74% | pest or weed control at 140 g/ha [1, 5]: 60 to 74% | pest or weed control at 35 g/ha [1, 6]: 0 to 29% | pest or weed control at 70 g/ha [1, 6]: 0 to 29% | pest or weed control at 140 g/ha [1, 6]: 0 to 29% | pest or weed control at 35 g/ha [1, 7]: 0 to 29% | pest or weed control at 70 g/ha [1, 7]: 0 to 29% | pest or weed control at 140 g/ha [1, 7]: 0 to 29% | pest or weed control at 35 g/ha [1, 8]: 95 to 100% | pest or weed control at 70 g/ha [1, 8]: 95 to 100% | pest or weed control at 140 g/ha [1, 8]: 95 to 100% | pest or weed control at 35 g/ha [2, 9]: 0 to 29% | pest or weed control at 70 g/ha [2, 9]: 0 to 29% | pest or weed control at 140 g/ha [2, 9]: 0 to 29% | pest or weed control at 35 g/ha [2, 10]: 0 to 29% | pest or weed control at 70 g/ha [2, 10]: 45 to 59% | pest or weed control at 140 g/ha [2, 10]: 60 to 74% | pest or weed control at 35 g/ha [2, 11]: 85 to 94% | pest or weed control at 70 g/ha [2, 11]: 85 to 94% | pest or weed control at 140 g/ha [2, 11]: 85 to 94% | pest or weed control at 35 g/ha [2, 12]: 0 to 29% | pest or weed control at 70 g/ha [2, 12]: 0 to 29% | pest or weed control at 140 g/ha [2, 12]: 30 to 44% | pest or weed control at 35 g/ha [2, 13]: 0 to 29% | pest or weed control at 70 g/ha [2, 13]: 60 to 74% | pest or weed control at 140 g/ha [2, 13]: 60 to 74% | pest or weed control at 35 g/ha [2, 14]: 95 to 100% | pest or weed control at 70 g/ha [2, 14]: 95 to 100% | pest or weed control at 140 g/ha [2, 14]: 95 to 100%

COC(=O)c1nc(-c2cc3c(cc2F)OCO3)nc(N)c1OC [Compound 69]
pest or weed control at 35 g/ha [1, 3]: 0 to 29% | pest or weed control at 70 g/ha [1, 3]: 0 to 29% | pest or weed control at 140 g/ha [1, 3]: 0 to 29% | pest or weed control at 35 g/ha [1, 4]: 0 to 29% | pest or weed control at 70 g/ha [1, 4]: 0 to 29% | pest or weed control at 140 g/ha [1, 4]: 0 to 29% | pest or weed control at 35 g/ha [1, 5]: 0 to 29% | pest or weed control at 70 g/ha [1, 5]: 0 to 29% | pest or weed control at 140 g/ha [1, 5]: 0 to 29% | pest or weed control at 35 g/ha [1, 6]: 0 to 29% | pest or weed control at 70 g/ha [1, 6]: 0 to 29% | pest or weed control at 140 g/ha [1, 6]: 0 to 29% | pest or weed control at 35 g/ha [1, 7]: 0 to 29% | pest or weed control at 70 g/ha [1, 7]: 0 to 29% | pest or weed control at 140 g/ha [1, 7]: 0 to 29% | pest or weed control at 35 g/ha [1, 8]: 0 to 29% | pest or weed control at 70 g/ha [1, 8]: 0 to 29% | pest or weed control at 140 g/ha [1, 8]: 0 to 29% | pest or weed control at 35 g/ha [2, 9]: 0 to 29% | pest or weed control at 70 g/ha [2, 9]: 0 to 29% | pest or weed control at 140 g/ha [2, 9]: 0 to 29% | pest or weed control at 35 g/ha [2, 10]: 75 to 84% | pest or weed control at 70 g/ha [2, 10]: 75 to 84% | pest or weed control at 140 g/ha [2, 10]: 95 to 100% | pest or weed control at 35 g/ha [2, 11]: 0 to 29% | pest or weed control at 70 g/ha [2, 11]: 0 to 29% | pest or weed control at 140 g/ha [2, 11]: 0 to 29% | pest or weed control at 35 g/ha [2, 12]: 0 to 29% | pest or weed control at 70 g/ha [2, 12]: 45 to 59% | pest or weed control at 140 g/ha [2, 12]: 60 to 74% | pest or weed control at 35 g/ha [2, 13]: 0 to 29% | pest or weed control at 70 g/ha [2, 13]: 0 to 29% | pest or weed control at 140 g/ha [2, 13]: 0 to 29% | pest or weed control at 35 g/ha [2, 14]: 0 to 29% | pest or weed control at 70 g/ha [2, 14]: 60 to 74% | pest or weed control at 140 g/ha [2, 14]: 75 to 84%
